Reference: US9034895B2, “Composition and methods for treating glioblastoma” (University of Washington Through its Center for …, priority 2010, dated 2015)

Columns and labels:
T98g cells = assay: Cell viability assay (WST-1), toxic potency and efficacy at T98g cells; type: cell-based; details: Homo sapiens, 72 h; for Emax: read-out: Toxic potency at T98g cells (percent efficacy); for EC50: read-out: Toxic potency at T98g cells potency μM; for cytotoxicity at 10 µM: read-out: Activity at killing T98g cells percent efficacy at 10 μM
Description: (§1) Cells were plated media supplemented with 10% serum in 96-well plates (10^4 cells per wellI; 0.1 ml per well). Once they reached ˜70% confluence, they were rinsed with PBS and kept for an additional 24 hrs in media supplemented with 1% serum, at which time drugs or vehicle (DMSO, 0.1%, prepared in 10 μl serum-free media) were directly added to each well. After 3 days, cell viability was assessed using the Cell Proliferation Reagent WST-1 (Roche, Indianapolis, Ind.). Briefly, WST-1 reagent (10 μl) was added to each well for 3 hrs at 37° C. with 5% CO2 and WST-1 products were read at 450 nm using Packard SpectraCount™.
Because the strongest toxic effect of WIN55212-2 was measured in T98g cells, these cells are used as readout to study the structure activity relationship (SAR) of AAI compounds at inducing cell death through AAI receptors.

CB1 = target: T1, CB1 (Mus musculus, UniProt P47746); assay: Radioligand competition binding, [3H]-CP55940, CB1-expressing HEK293 membranes; details: FIG. 2 (CB1 not shown)
T1 construct: plasmids containing full coding region of mouse CB1 and CB2; expressed in transfected cells
Description: (§2) Stable CB1 and CB2 expressing HEK293 cell lines were generated using plasmids containing full coding region of mouse CB1 and CB2.
(§3) Fragments were amplified from total RNA of cell lines by reverse transcriptase-polymerase chain reaction (RT-PCR). Sequence was confirmed and the fragment was cloned into the EcoRI site of the pIRES2-eGFP-express vector. Cells were grown to approximately 80% confluence in 10 cm cell culture dishes, transfected with the cDNA pIRES-eGFP-vector containing the murine CB1 or CB2 receptor using LipofectAMINE™ 2000 reagent in the serum-free media Opti-MEM 1 according to the manufacturer's description. Cells were subject to FACS sorting 48 h after transfection and single cell sorted based on dsRed expression into 96-well plates. Of the dsRed expressing positive clones, 3 were validated for CB1 and CB2 protein expression by radioligand binding analysis (methods discussed below).
(§4) Cells were grown to 90% confluence, rinsed twice with 1×PBS and stored at −80° C. until further use. To prepare crude cellular membrane fractions, dishes were removed from −80° C. and thawed at room temperature for 5 min. Once thawed, cells were lysed with ice-cold homogenization buffer (50 mM Tris, 1 mM EDTA, 3 mM MgCl2) and gently scraped from the dish. Total cell lysates from 3-5 dishes were collected on ice in 3 ml of ice-cold homogenization buffer. Cells were homogenized at 6,500 rpm (PRO Scientific, Oxford, Conn.) twice for 10 sec and centrifuged at 11,500 rpm for 20 min at 4° C. Supernatants were discarded and cell pellets were resuspended in homogenization buffer and triturated 10 times in ice-cold homogenization buffer. Crude cellular membrane homogenates were stored at −80° C. until further use. On the day of experiments, frozen homogenates were thawed at room temperature, gently triturated 10 times and subsequently dounce homogenized in a 7 ml glass tissue grinder (Wheaton Science Products, Millville, N.J.) by 5 strokes while on ice. […]

[1] = system: T98g, MDA231 and sknmc cells; assay: Cell viability assay, killing of CB1/CB2-lacking cell lines; type: cell-based, human; details: for potencies and efficacies at killing T98g, MDA231 and sknmc cells: in words
Description: as §1
The expression level of CB1 and CB2 mRNA is determined by qPCR in eight human cell lines and found three, T98g, MDA231 and sknmc cells, that lack CB1 and CB2 mRNA (Table 1).
Based on this evidence, it was determined if WIN55212-2 differentially kills T98g, MDA231 and sknmc cells, which provides an index of AAI receptor functionality in these cells. Also tested is Δ^9-THC (classic cannabinoid) and CP55940 (non-classical cannabinoid).

[2] = system: protein expressed by NG108-15 cells; details: cited from earlier work
[3] = system: hippocampal slices prepared from CB1−/− mice; details: blocked by capsazepine; cited from earlier work
CB2 = target: T2, CB2 (Mus musculus, UniProt P47936); assay: Radioligand competition binding, [3H]-CP55940, CB2-expressing HEK293 membranes; details: FIG. 2
T2 construct: plasmids containing full coding region of mouse CB1 and CB2; expressed in transfected cells
Description: as §2, §3, §4

[4] = system: homogenates prepared from CB1−/− mice cerebellum; details: insensitive to SR144528; cited from earlier work

T1 sequence (P47746 whole entry): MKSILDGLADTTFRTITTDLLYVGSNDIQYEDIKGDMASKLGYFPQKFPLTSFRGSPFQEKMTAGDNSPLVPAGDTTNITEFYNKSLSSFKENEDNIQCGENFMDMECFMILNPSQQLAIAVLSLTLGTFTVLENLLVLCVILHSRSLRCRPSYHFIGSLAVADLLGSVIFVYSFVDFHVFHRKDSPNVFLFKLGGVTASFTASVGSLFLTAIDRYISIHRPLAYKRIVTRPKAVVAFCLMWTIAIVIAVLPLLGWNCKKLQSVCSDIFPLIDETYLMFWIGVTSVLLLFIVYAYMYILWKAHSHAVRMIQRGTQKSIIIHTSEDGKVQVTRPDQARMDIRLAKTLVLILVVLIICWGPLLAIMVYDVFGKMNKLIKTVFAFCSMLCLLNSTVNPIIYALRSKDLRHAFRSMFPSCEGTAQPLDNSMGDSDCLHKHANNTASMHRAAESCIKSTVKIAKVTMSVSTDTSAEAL
T2 sequence (P47936 whole entry): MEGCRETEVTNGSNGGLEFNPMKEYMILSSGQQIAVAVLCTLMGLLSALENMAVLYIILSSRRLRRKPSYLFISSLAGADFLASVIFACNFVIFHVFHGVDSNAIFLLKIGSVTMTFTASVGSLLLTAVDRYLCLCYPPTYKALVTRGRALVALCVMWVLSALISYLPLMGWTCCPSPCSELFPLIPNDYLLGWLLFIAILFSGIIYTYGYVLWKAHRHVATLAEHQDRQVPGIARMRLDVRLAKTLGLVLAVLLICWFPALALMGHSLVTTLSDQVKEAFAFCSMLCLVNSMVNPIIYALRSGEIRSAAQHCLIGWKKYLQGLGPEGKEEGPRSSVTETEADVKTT

Row | Structure (SMILES) | Emax (T98g cells) [%] | EC50 (T98g cells) [µM] | cytotoxicity at 10 µM (T98g cells) [%] | also measured
1 | CCCn1c(C)c(C(=O)c2cccc3ccccc23)c2ccccc21 [JWH-015, (2-methyl-1-propyl-1H-indol-3-yl)(naphthalen-1-yl)methanone] | 58 | 1.3 |  | 
2 | COc1ccc2c(c1)c(C(O)N1CCCC(c3nnc4ccccn34)C1)c(C)n2C (centres unmarked) [TK12] |  |  | 16 | 
3 | Cc1ccc(C(=O)c2c(C)n(CCN3CCOCC3)c3ncccc23)c2ccccc12 [CBX-003, (2-methyl-1-(2-morpholino ethyl)-1H-pyrrolo[2,3-b]pyridin-3-yl)(4-methylnaphthalen-1-yl)methanone] | 71 | 5 |  | 
4 | Cc1c(C(=O)c2cccc3ccccc23)c2ccccc2n1C [JWH-042] | 71 | 3.1 |  | 
5 | Cc1c(CNN2CCOCC2)nn(C)c1C [TK-1] |  |  | 6 | 
6 | COCCn1c(C)c(C(=O)N2CCC3(CC2)NC(=O)N(C)C3=O)c2ccccc21 [TK-8] | 55 | 886 |  | 
7 | CCCCCn1cc(C(=O)c2cccc3ccccc23)cc1-c1cc(C)cc(O)c1 [JWH-370] |  |  | 11 | 
8 | O=C(c1cccc2ccccc12)c1cn(CCN2CCOCC2)c2ccccc12 [JWH-200] | 48 | 21 |  | 
9 | Cn1cc(C(=O)N2CCCc3ccccc32)c2ccccc21 [TK10] |  |  | 0 | 
10 | CC(=O)c1c(C)n(CCCOc2ccccc2)c2ccccc12 [TK-14] | 92 | 40 |  | 
11 | CC1=C(CCN2C(=O)COc3ccccc32)c2ccccc2C1C (centres unmarked) [TK4] |  |  | 10 | 
12 | CCCn1c(C)c(C(=O)c2ccc(C)c3ccccc23)c2ccccc21 [JWH-148] | 48 | 2 |  | 
13 | CCCn1cc(C(=O)c2ccc(C)c3ccccc23)c2ccccc21 [JWH-120] |  |  | 0 | 
14 | Cc1nccn1CC1CCc2c(c3ccccc3n2C)C1=O (centres unmarked) [TK3] |  |  | 11 | 
15 | CCn1c(C)c(C(=O)c2cccc3ccccc23)c2ccccc21 [JWH-043] | 84 | 6.9 |  | 
16 | CC(=O)c1c(C)n(CCOc2cccc3ccccc23)c2ccccc12 [TK-15] | 62 | 45 |  | 
17 | Cc1c(C(=O)c2ccccc2)c2ccccc2n1CC(=O)N1CCOCC1 [TK16] |  |  | 3 | 

Row | Structure (SMILES) | Emax (T98g cells) [%] | EC50 (T98g cells) [µM] | cytotoxicity at 10 µM (T98g cells) [%] | also measured
18 | CC(=O)c1c(C)n(CCOc2ccccc2)c2ccccc12 [TK-2] | 81 | 3.1 |  | 
19 | Cc1ccc(C(=O)c2c(C)n(CCN3CCOCC3)c3cc(Cl)cc(Cl)c23)c2ccccc12 [CBX-007, (4,6-dichloro-2-methyl-1-(2-morpholino ethyl)-1H-indol-3-yl)(4-methylnaphthalen-1-yl)methanone] | 56 | 0.6 |  | 
20 | O=C1CCCc2c1c1ccccc1n2Cc1ccccc1 [TK7] |  |  | 19 | 
21 | Cc1c(C(=O)c2cccc3ccccc23)c2cccc3c2n1[C@@H](CN1CCOCC1)CO3 [WIN55212-2] | 87 | 1.5 |  | competition for [3H]-CP55940 binding at CB1 (CB1): competes; EC50 ([1]; Homo sapiens, range over the three cell lines (FIG. 1), read-out: potency at killing T98g, MDA231 and sknmc cells): 1.5 to 2.9 µM; gradual toxic efficacy across cell lines ([1]; rank order of cell lines): T98g>MDA>sknmc; binding affinity to a protein expressed by NG108-15 cells [2]: nanomolar affinity; excitatory transmission [3]: inhibit; competition for [3H]-CP55940 binding at CB2 (CB2): competes; [35S]-GTPγS binding [4]: increase
22 | Cc1c(C(=O)C(F)(F)F)c2ccccc2n1CC(=O)NCc1ccccc1 [TK6] |  |  | 8 | 
23 | Cc1ccc(C(=O)c2c(C)n(C)c3ccccc23)c2ccccc12 [JWH-450, (1,2-dimethyl-1H-indol-3-yl)(4-methylnaphthalen-1-yl)methanone] | 66 | 2 |  | 
24 | CCCCCCC(C)(C)c1ccc([C@@H]2C[C@H](O)CC[C@H]2CCCO)c(O)c1 [CP55940] |  |  |  | potencies and efficacies at killing T98g, MDA231 and sknmc cells [1]: inconsistent potencies and efficacies; competition for WIN-2 binding in NG108-15 cells [2]: did not compete
25 | Cc1ccc(C(=O)c2c(C)n(CCN3CCOCC3)c3cc(Cl)ccc23)c2ccccc12 [CBX-004, (6-chloro-2-methyl-1-(2-morpholinoethyl)-1H-indol-3-yl)(4-methylnaphthalen-1-yl)methanone] | 68 | 2 |  | 
26 | Cc1ccc(C(=O)c2c(C)n(CCN3CCOCC3)c3ccccc23)c2ccccc12 [TK-18] | 48 | 3 |  | 
27 | COc1ccc2c(c1)c(C(=O)N1CCCC(c3nnc4ccccn34)C1)c(C)n2C (centres unmarked) [TK11] |  |  | 10 | 
28 | Cc1c(C(=O)Cn2cnc3ccccc3c2=O)c2ccccc2n1C [TK5] |  |  | 3 | 
29 | CCCCCc1cc(O)c2c(c1)OC(C)(C)[C@@H]1CCC(C)=C[C@@H]21 [THC] |  |  |  | potencies and efficacies at killing T98g, MDA231 and sknmc cells [1]: inconsistent potencies and efficacies
30 | COc1ccc(C(=O)c2c(C)n(CCN3CCOCC3)c3ccccc23)cc1 [Pravadoline] | 88 | 22 |  | 
31 | Cc1ccc(C(=O)c2c3n(c4ccccc24)CCCC3)c2ccccc12 [CBX-005, (4-methylnaphthalen-1-yl)(6,7,8,9-tetrahydropyrido[1,2-a]indol-10-yl)methanone] | 64 | 1.2 |  | 
32 | Cc1ccc(C(=O)c2c(C)n(CCN3CCOCC3)c3ccc(Cl)cc23)c2ccccc12 [CBX-002, (5-chloro-2-methyl-1-(2-morpholino ethyl)-1H-indol-3-yl)(4-methylnaphthalen-1-yl)methanone] | 45 | 30 |  | 
33 | COCCn1cc(C(=O)N2CCCC(CN(C)C)C2)c2ccccc21 (centres unmarked) [TK9] |  |  | 0 | 
